Test results as given in ChEMBL document CHEMBL3792292, “Development of a potent and selective FLT3 kinase inhibitor by systematic expansion of a non-selective fragment-screening hit” (Bioorg Med Chem Lett, 2016).

What was measured:
[1] = target: Mitogen-activated protein kinase kinase kinase kinase 4 (Homo sapiens, UniProt O95819); assay: Inhibition of human N-terminal GST-tagged HGK catalytic domain (1 to 328 residues) expressed in baculovirus expression system using fluorescence labelled moesin-derived peptide substrate at 50 times IC50 by electrophoretic mobility shift assay relative to control
Chain of Mitogen-activated protein kinase kinase kinase kinase 4 (O95819 2-1239 limits assumed): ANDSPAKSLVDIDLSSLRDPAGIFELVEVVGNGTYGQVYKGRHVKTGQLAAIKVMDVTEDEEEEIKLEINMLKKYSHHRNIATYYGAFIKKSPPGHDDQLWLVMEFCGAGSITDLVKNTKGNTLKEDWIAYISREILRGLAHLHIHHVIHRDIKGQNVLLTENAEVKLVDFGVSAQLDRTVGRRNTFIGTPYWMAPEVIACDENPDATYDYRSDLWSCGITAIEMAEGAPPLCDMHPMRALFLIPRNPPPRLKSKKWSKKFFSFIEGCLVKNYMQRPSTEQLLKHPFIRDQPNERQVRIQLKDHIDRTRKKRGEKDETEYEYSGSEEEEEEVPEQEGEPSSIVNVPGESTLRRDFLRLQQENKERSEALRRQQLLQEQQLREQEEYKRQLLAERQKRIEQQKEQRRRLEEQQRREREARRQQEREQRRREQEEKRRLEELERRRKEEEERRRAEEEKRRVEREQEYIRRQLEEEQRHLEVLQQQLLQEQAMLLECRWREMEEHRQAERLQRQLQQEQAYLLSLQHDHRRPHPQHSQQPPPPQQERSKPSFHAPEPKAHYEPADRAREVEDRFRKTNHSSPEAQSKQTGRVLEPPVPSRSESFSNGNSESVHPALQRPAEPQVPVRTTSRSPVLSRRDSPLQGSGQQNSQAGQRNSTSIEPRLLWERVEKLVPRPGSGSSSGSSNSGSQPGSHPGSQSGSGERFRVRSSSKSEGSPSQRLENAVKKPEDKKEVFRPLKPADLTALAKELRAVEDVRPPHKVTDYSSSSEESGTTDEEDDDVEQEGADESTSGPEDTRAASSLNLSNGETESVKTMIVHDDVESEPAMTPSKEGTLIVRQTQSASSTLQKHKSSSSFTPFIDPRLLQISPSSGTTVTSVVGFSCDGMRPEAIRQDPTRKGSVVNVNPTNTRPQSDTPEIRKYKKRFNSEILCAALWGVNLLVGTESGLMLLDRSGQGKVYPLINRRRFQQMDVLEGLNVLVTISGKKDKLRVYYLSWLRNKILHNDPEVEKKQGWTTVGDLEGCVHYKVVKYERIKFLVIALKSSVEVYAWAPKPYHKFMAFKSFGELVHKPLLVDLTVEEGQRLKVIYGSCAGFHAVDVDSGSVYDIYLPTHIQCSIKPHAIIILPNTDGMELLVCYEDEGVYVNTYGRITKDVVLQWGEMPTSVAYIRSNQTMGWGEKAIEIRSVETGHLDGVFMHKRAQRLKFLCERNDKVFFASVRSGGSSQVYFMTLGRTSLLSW

[2] = target: Vascular endothelial growth factor receptor 2 (Homo sapiens) (UniProt P35968); assay: Inhibition of human N-terminal GST-tagged KDR cytoplasmic domain (790 to 1356 residues) expressed in baculovirus expression system using fluorescence labelled CSKtide as substrate at 50 times IC50 by electrophoretic mobility shift assay relative to control
Chain of Vascular endothelial growth factor receptor 2 (Homo sapiens) (P35968 whole entry, the tested form may be a part): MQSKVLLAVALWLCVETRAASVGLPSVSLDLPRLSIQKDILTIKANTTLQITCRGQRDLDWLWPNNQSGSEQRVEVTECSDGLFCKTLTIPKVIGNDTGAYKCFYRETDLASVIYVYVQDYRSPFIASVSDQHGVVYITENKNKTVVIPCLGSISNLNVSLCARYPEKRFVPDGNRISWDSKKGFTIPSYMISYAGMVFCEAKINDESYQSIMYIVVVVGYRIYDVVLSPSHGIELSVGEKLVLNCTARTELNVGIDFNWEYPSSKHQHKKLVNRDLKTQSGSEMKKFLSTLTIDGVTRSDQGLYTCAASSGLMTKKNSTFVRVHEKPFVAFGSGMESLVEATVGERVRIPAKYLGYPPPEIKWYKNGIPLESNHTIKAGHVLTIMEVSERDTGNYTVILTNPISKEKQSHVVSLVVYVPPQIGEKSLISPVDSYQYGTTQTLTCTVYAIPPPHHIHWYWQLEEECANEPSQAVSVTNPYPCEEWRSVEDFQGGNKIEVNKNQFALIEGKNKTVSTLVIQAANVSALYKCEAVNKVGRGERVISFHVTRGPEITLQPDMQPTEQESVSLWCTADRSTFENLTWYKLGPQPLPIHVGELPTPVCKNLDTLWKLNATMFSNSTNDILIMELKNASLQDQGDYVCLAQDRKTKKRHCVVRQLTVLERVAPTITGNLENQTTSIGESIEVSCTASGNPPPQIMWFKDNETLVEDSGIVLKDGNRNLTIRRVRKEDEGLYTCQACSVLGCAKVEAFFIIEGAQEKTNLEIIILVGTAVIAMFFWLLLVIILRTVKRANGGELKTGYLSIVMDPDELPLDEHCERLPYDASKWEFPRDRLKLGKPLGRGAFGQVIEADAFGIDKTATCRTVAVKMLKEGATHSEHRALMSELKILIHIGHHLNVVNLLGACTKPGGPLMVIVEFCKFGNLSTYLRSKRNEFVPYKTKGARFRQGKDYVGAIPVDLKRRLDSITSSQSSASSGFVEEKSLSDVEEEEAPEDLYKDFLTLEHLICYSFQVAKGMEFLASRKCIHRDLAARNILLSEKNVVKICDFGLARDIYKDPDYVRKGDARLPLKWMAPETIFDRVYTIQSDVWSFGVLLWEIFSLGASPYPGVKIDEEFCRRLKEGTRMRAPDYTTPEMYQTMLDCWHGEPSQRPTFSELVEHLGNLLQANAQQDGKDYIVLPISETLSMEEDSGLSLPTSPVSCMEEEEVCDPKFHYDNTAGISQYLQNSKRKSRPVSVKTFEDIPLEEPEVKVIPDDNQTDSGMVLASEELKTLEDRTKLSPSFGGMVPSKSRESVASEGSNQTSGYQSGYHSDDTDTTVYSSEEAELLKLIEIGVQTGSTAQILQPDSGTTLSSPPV

[3] = target: T1, Ephrin type-B receptor 4 (Homo sapiens) (UniProt P54760); assay: Inhibition of human N-terminal GST-tagged EPHB4 cytoplasmic domain (577 to 987 residues) expressed in baculovirus expression system using fluorescence labelled Blk/Lyntide as substrate at 50 times IC50 by electrophoretic mobility shift assay relative to control
T1 sequence (whole entry): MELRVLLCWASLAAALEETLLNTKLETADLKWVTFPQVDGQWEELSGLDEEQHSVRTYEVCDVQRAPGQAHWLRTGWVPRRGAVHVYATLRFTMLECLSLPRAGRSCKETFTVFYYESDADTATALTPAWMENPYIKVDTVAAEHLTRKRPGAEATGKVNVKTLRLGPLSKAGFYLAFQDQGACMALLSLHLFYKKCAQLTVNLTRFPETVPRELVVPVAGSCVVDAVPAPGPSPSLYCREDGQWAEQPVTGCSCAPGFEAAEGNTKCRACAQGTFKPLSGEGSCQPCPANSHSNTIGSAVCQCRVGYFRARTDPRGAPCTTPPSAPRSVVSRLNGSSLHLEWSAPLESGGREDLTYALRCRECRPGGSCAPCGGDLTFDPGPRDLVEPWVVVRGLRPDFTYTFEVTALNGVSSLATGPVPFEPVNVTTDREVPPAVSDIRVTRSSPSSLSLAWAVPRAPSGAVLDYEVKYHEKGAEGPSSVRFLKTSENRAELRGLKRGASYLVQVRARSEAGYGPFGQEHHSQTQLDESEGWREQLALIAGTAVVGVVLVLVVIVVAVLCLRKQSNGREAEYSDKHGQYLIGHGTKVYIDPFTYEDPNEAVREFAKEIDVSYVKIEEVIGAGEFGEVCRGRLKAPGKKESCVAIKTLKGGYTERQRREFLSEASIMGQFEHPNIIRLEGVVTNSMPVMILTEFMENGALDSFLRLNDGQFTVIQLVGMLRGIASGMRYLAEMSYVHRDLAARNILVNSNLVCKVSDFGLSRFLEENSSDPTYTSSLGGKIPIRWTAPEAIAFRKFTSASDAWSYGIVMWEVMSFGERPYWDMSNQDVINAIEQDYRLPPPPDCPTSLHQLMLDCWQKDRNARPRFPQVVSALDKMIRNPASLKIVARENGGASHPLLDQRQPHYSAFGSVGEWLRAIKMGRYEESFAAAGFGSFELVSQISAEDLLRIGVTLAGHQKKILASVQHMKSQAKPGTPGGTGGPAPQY

[4] = target: T2, Calcium/calmodulin-dependent protein kinase type IV (Homo sapiens) (UniProt Q16566); assay: Inhibition of full length human N-terminal GST-tagged CAMK4 (1 to 473 residues) expressed in baculovirus expression system using fluorescence labelled GS peptide as substrate at 50 times IC50 by electrophoretic mobility shift assay relative to control
T2 sequence (whole entry): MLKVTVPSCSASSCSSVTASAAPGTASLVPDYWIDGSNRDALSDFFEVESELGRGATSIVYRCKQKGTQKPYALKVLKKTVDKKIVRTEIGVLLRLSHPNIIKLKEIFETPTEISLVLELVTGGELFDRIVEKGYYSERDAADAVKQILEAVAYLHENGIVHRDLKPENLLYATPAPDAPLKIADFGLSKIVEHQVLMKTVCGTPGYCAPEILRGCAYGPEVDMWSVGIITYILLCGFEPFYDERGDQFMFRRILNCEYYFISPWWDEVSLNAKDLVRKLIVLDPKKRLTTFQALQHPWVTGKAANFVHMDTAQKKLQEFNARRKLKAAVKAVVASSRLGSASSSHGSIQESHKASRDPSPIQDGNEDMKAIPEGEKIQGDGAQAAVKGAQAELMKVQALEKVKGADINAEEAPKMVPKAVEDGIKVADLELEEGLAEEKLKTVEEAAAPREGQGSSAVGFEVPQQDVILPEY

[5] = target: Tyrosine-protein kinase Lck (Homo sapiens) (UniProt P06239); assay: Inhibition of full length human N-terminal GST-tagged LCK (1 to 500 residues) expressed in baculovirus expression system using fluorescence labelled srctide as substrate at 50 times IC50 by electrophoretic mobility shift assay relative to control
Chain of Tyrosine-protein kinase Lck (Homo sapiens) (P06239 2-509 limits assumed): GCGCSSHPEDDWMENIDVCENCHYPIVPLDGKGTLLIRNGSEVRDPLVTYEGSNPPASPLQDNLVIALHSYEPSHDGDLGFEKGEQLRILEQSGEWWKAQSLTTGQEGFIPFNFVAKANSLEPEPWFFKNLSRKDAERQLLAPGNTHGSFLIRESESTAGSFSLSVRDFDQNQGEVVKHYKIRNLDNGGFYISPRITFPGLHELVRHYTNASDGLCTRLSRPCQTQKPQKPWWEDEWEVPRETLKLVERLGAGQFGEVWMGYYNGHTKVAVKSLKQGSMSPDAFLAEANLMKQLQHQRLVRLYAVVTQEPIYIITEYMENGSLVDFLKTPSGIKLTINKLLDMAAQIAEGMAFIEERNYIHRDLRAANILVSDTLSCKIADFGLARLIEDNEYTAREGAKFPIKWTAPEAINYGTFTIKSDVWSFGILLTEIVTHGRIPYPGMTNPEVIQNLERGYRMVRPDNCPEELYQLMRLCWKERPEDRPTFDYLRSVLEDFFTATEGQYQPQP

[6] = target: T3, Receptor-type tyrosine-protein kinase FLT3 (Homo sapiens, UniProt P36888); assay: Inhibition of human N-terminal GST-tagged FLT3 cytoplasmic domain (564 to 993 residues) expressed in baculovirus expression system using 5-FAM-peptide 2 as substrate after 2 hrs by electrophoretic mobility shift assay in presence of ATP
T3 sequence (P36888 whole entry): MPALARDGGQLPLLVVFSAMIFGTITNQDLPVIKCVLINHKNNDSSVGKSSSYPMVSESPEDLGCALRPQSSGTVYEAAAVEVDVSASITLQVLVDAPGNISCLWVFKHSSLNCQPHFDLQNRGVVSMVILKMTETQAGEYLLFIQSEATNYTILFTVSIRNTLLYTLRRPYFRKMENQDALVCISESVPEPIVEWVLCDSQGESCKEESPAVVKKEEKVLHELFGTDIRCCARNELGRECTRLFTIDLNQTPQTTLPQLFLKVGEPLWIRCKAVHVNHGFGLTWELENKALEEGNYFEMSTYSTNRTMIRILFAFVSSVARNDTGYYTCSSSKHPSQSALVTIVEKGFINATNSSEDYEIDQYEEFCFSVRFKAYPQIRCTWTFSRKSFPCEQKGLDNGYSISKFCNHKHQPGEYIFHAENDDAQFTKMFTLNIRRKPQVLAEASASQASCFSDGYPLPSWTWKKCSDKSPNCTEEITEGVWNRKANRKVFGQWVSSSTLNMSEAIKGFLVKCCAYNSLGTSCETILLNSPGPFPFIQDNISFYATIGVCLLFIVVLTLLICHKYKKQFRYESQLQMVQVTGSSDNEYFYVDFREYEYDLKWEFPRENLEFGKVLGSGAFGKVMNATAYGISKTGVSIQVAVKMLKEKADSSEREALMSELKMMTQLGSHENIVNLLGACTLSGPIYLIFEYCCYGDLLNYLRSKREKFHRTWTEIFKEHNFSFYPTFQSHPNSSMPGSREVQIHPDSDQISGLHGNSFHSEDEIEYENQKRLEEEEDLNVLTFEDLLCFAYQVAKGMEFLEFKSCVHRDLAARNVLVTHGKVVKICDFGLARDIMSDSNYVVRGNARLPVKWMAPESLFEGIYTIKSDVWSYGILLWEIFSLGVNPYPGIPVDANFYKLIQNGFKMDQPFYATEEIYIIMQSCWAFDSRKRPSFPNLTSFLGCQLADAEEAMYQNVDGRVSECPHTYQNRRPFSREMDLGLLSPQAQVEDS

Structure (SMILES) | inhibition [1] | inhibition [2] | inhibition [3] | inhibition [4] | inhibition [5] | IC50 [6]
O=C(Nc1ccc(C(=O)N2CCN(c3ccccc3)CC2)cc1)c1n[nH]c2ccccc12 | 90.6% | 34.2% | -1.2% | 2.7% | 1.8% | 34 nM
O=C(Nc1ccc(CN2CCN(c3ccccc3)CC2)cc1)c1n[nH]c2ccccc12 | 62.8% | 15.8% | -0.4% | 0.8% | 1.8% | 10 nM
O=C(Nc1ccccc1)c1n[nH]c2ccccc12 | 92.5% | 44.2% | 0.4% | 21.2% | 5.6% | 417 nM
